Laboratory results published in US10053468B2, “Heterocyclic compound” (TAKEDA PHARMACEUTICAL COMPANY LIMITED, priority 2013, dated 2018).
Where two headings read alike, the source gives them in different places.

Experiments:
RORγt [1] = biological target: T1, RORγt (Homo sapiens, UniProt P51449); assay: RORγt binding test using fluorescent-labeled cholesterol (TR-FRET); settings: read-out: Binding inhibitory rate of fluorescent-labeled cholesterol to RORγt at test compound 1 μM (%)
T1 sequence (P51449 1-497 isoform P51449-2): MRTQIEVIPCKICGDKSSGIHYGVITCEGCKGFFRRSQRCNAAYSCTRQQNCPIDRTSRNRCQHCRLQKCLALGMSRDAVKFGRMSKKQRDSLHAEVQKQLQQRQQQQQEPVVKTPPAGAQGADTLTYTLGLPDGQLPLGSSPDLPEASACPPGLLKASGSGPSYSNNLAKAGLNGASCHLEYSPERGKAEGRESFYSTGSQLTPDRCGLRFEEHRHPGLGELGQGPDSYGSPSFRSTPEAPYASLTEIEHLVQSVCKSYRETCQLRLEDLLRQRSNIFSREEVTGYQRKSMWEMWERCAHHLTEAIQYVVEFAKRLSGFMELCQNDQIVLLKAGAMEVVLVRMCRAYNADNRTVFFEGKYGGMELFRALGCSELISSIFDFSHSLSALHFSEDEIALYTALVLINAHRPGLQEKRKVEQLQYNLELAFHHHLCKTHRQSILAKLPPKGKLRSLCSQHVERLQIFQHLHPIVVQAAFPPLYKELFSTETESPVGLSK
Protocol: RORγt Binding Test Using Fluorescent-labeled Cholesterol
The binding activity of the test compound to RORγt was measured by a time resolved fluorescence resonance energy transfer method (TR-FRET) utilizing histidine-tagged RORγt, fluorescent-labeled cholesterol (BODIPY-cholesterol, AVIVA), and terbium-labeled anti-histidine tag antibody (Invitrogen). First, a test compound diluted with an assay buffer (20 mM Tris-HCl (pH 7.5), 100 mM NaCl, 1 mM DTT, 0.1% BSA) was added to a 384 well plate by 3 μL. Then, RORγt diluted with an assay buffer to 240 nM was added by 3 μL, after which fluorescent-labeled cholesterol diluted with the assay buffer to 12 μM was added by 3 μL, and the mixture was stood at room temperature for 20 min. Thereafter, a terbium-labeled anti-histidine tag antibody diluted with the assay buffer to 8 nM was added by 3 μL. The mixture was stood at room temperature for 20 min, and fluorescence intensity (excitation wavelength 320 nm, fluorescence wavelength 520 nm, delay time 100 microseconds) was measured by Envision (PerkinElmer).

RORγt [2] = biological target: T1, RORγt; assay: Cofactor recruitment test (Alpha Screen, biotinylated SRC-1 peptide); format: biochemical; settings: read-out: Signal value inhibitory rate at test compound 1 μM (%)
Protocol: Cofactor Recruitment Test
Cofactor recruitment test was performed by Alpha Screen (Histidine Detection Kit, PerkinElmer) method. First, a test compound was diluted with an assay buffer (50 mM Tris-HCl (pH 7.5), 50 mM KCl, 1 mM DTT, 0.1% BSA) and added to a 384 well plate by 5 μL. […] The mixture was stood in a dark place for 1 hr, and the signal value was measured by Envision (PerkinElmer).

RORγt [3] = biological target: T1, RORγt; assay: Jurkat reporter test (human IL-17 ROR response element luciferase, RORγt vector); format: cell-based; settings: read-out: Luminescence level inhibitory rate at test compound 3 μM (%)
Protocol: The Jurkat cells used for the reporter test were cultured in a culture medium (RPMI (Invitrogen), 10% FCS (AusGeneX), 100 U/mL penicillin, 100 μg/mL streptomycin). On the day of the test, 4×10^7 cells were recovered by a centrifugal operation (1000 rpm, 5 min.) and suspended in PBS (phosphate buffered saline) (Invitrogen). Thereafter, the cells were recovered again by a centrifugal operation, and suspended in 2 mL of R buffer (NEON transfection kit, Invitrogen). […] Gene transfer was performed by Electroporation apparatus (NEON, Invitrogen) under the conditions of pulse voltage 1350 V, interval 10 milliseconds, number of times 3. The cells after gene transfer were suspended in 40 mL of a reaction medium (RPMI, 10% Lipid reduced FCS (HyClone), 10 mM HEPES (pH 7.5), 100 U/mL penicillin, 100 μg/mL streptomycin, 5 μM lovastatin), and plated in a 96 well plate by 90 μL. A test compound diluted with the reaction medium was added by 10 μL, and the cells were cultured overnight in an incubator. Bright-Glo (Promega) was added by 100 μL, and the mixture was stirred at room temperature for 10 min, and the luminescence level was measured by Envision (PerkinElmer).

[4] = test compound 3 μM, Jurkat cells

SMILES | inhibition at 1 µM (RORγt [1]) [%] | inhibition at 1 µM (RORγt [2]) [%] | inhibition at 3 µM (RORγt [3]; [4]) [%] | inhibition at 3 µM (RORγt [3]; Jurkat) [%]
COc1ccc2c(c1)CCN(C(=O)c1cc(O)no1)[C@H]2C(=O)Nc1cc(F)c(C(C)(C)COCC2CC2)c(F)c1 [Example 158, (1R)-N-(4-(1-(cyclopropylmethoxy)-2-methylpropan-2-yl)-3,5-difluorophenyl)-2-((3-hydroxy-1,2-oxazol-5-yl)carbonyl)-6-methoxy-1,2,3,4-tetrahydroisoquinoline-1-carboxamide] | 101 | 76 | 93 | 
COc1ccc2c(c1)CCN(C(=O)CCCC(=O)O)[C@H]2C(=O)Nc1cc(F)c(C(C)(C)COCC(F)F)c(F)c1 [Example 162, 5-((1R)-1-((4-(1-(2,2-difluoroethoxy)-2-methylpropan-2-yl)-3,5-difluorophenyl)carbamoyl)-6-methoxy-3,4-dihydroisoquinolin-2(1H)-yl)-5-oxopentanoic acid] | 99 | 82 | 95 | 
CCOc1ccc2c(c1)CCN(C(=O)Cc1cc(O)no1)C2C(=O)Nc1cc(F)c2c(c1)CCC2(C)C (stereo not drawn) [Example 55, 6-ethoxy-N-(7-fluoro-1,1-dimethyl-2,3-dihydro-1H-inden-5-yl)-2-((3-hydroxy-1,2-oxazol-5-yl)acetyl)-1,2,3,4-tetrahydroisoquinoline-1-carboxamide] | 102 | 73.4 | 100 | 
CCOc1ccc2c(c1)CCN(C(=O)CCCC(=O)O)[C@H]2C(=O)Nc1cc(F)c(C(C)(C)COC)c(F)c1 [Example 164, 5-((1R)-1-((3,5-difluoro-4-(1-methoxy-2-methylpropan-2-yl)phenyl)carbamoyl)-6-ethoxy-3,4-dihydroisoquinolin-2(1H)-yl)-5-oxopentanoic acid] | 101 | 96 | 101 | 
COc1ccc2c(c1)CCN(C(=O)c1cc(O)no1)[C@H]2C(=O)Nc1cc(F)c(C(C)(C)COCC(F)F)c(F)c1 [Example 160, (1R)-N-(4-(1-(2,2-difluoroethoxy)-2-methylpropan-2-yl)-3,5-difluorophenyl)-2-((3-hydroxy-1,2-oxazol-5-yl)carbonyl)-6-methoxy-1,2,3,4-tetrahydroisoquinoline-1-carboxamide] | 100 | 82 | 98 | 
COc1ccc2c(c1)CCN(C(=O)Cn1cnccc1=O)[C@H]2C(=O)Nc1ccc(C(C)(C)C)c(F)c1 [Example 29, (1R)-N-(4-tert-butyl-3-fluorophenyl)-6-methoxy-2-((6-oxopyrimidin-1(6H)-yl)acetyl)-1,2,3,4-tetrahydroisoquinoline-1-carboxamide] | 102 | 88 | 102 | 
COc1ccc2c(n1)CCN(C(=O)Cc1cc(O)no1)[C@H]2C(=O)Nc1cc(F)c([Si](C)(C)C)c(F)c1 [Example 124, (5R)-N-(3,5-difluoro-4-(trimethylsilyl)phenyl)-6-((3-hydroxy-1,2-oxazol-5-yl)acetyl)-2-methoxy-5,6,7,8-tetrahydro-1,6-naphthyridine-5-carboxamide] | 101 | 99 |  | 102
CCOCC(C)(C)c1c(F)cc(NC(=O)[C@H]2c3ccc(OCC)cc3CCN2C(=O)Cc2cc(O)no2)cc1F [Example 168, (1R)-6-ethoxy-N-(4-(1-ethoxy-2-methylpropan-2-yl)-3,5-difluorophenyl)-2-((3-hydroxy-1,2-oxazol-5-yl)acetyl)-1,2,3,4-tetrahydroisoquinoline-1-carboxamide] | 97 | 86 | 99 | 
CC[Si](C)(C)c1c(F)cc(NC(=O)[C@H]2c3ccc(COC)nc3CCN2C(=O)Cc2cc(O)no2)cc1F [Example 173, (5R)-N-(4-(ethyl (dimethyl)silyl)-3,5-difluorophenyl)-6-((3-hydroxy-1,2-oxazol-5-yl)acetyl)-2-(methoxymethyl)-5,6,7,8-tetrahydro-1,6-naphthyridine-5-carboxamide] | 101 | 97 |  | 99
